The record followed here is PMC11672294, “The Antipsychotic Drug Aripiprazole Suppresses Colorectal Cancer by Targeting LAMP2a to Induce RNH1/miR‐99a/mTOR‐Mediated Autophagy and Apoptosis” (Advanced Science, 2024).

Counter-ions that a name gives are not always drawn. Like-named read-outs stand apart in the source and are kept apart here. Starred links: 1 amine or outer side, 2 acyl side, 3 side chain; linkers in the order of their positions; H or OH if unused. Positions of bridges follow the written chain, without caps; N, C: chain ends. Non-standard residues stand in square brackets, D forms with d. Residues, ends and D or L forms follow the SMILES beside them. *: point of attachment. pTerphenylCO(4''-OnC5H11) = CCCCCOc1ccc(-c2ccc(-c3ccc(C(=O)*)cc3)cc2)cc1; Orn(4R-OH,5R-OH) = O=C([C@H](C[C@@H](O)[C@@H](O)N[*:3])N[*:1])[*:2]; hTyr(3S-OH,4S-OH) = N[C@H](C(=O)O)[C@H](O)[C@@H](O)c1ccc(O)cc1; Pro(3S-OH,4S-Me) = C[C@H]1CN[C@H](C(=O)O)[C@H]1O; Hyp = O=C(O)[C@@H]1C[C@@H](O)CN1

For the data set, the system named is HT29. The settings on record: 72 h, relative to DMSO, 10 µM. The text has this: To investigate the key signaling pathways and biological processes involved in CRC progression, we analyzed the National Center for Biotechnology Information Gene Expression Omnibus (GEO) dataset GSE115313, which included 42 CRC and paired normal tissues (Figure 1A). […] Next, we performed an Annexin V‐fluorescein isothiocyanate (FITC)/propidium iodide (PI) staining assay to determine the effect of aripiprazole on apoptosis in CRC cells. […] A) Principal component analysis of GEO dataset (GSE115313), which includes 42 CRC and paired normal tissues. B) Gene Ontology pathway analysis of the DEPs between CRC and paired normal tissues. […] D) Schematic diagram for identifying anticancer drugs amongst an US Food and Drug Administration‐approved small‐molecule library (616 compounds) using WST‐1 assay. E) HT29 cells were treated with the 616 drugs (10 µM) individually or with dimethyl sulfoxide for 72 h, followed by WST‐1 assay. […] J) Mice bearing HT29‐derived tumor xenografts were intragastrically administered with aripiprazole (10 or 20 mg kg^−1) once every 2 d, n = 6 mice/group. […] Bars, SD; ^* p < 0.05; ^** p < 0.01; ^*** p < 0.001; ns, no significant difference. The WST‐1 Cell Proliferation and Cytotoxicity Assay Kit (Beyotime Biotechnology, Shanghai, China) was used to measure cell viability, as described previously.^[ [10] ^] CRC cells were seeded into 96‐well plates and treated with different drug concentrations. Following that, WST‐1 was added to the plate and incubated with the cells for 2 h, at 37 °C. Absorbance at the wavelength of 450 nm was measured using an automated microplate spectrophotometer (BioTek Instruments, Winooski, VT, USA).

In the case of `CN1C[C@@H]2c3ccccc3Oc3ccc(Cl)cc3[C@H]2C1` (racemic) [Asenapine], the “Relative cell viability (%)” value was 50.93%. As to `COC(=O)C1=C(C)NC(C)=C(C(=O)O[C@@H]2CCCN(Cc3ccccc3)C2)[C@@H]1c1cccc([N+](=O)[O-])c1` (racemic) [Benidipine HCl], the “Relative cell viability (%)” value worked out at 75.78%. On the same count and under the same terms, with `C[N+](C)(C)CC(O)CC(=O)[O-]` (racemic) [DL-Carnitine HCl] the figure was 125.5%; with `CC(C)n1c(/C=C/[C@@H](O)C[C@@H](O)CC(=O)O)c(-c2ccc(F)cc2)c2ccccc21` (racemic) [Fluvastatin Sodium], 103.4%; with `COc1ccc(C[C@@H](C)NC[C@H](O)c2ccc(O)c(NC=O)c2)cc1` (racemic) [Formoterol Hemifumarate], 95.63%. The same measure, in the same setting: with `CC(=O)N1CCN(c2ccc(OC[C@@H]3CO[C@@](Cn4ccnc4)(c4ccc(Cl)cc4Cl)O3)cc2)CC1` (racemic) [Ketoconazole] the figure was 43.15%; with `COc1cc2c(cc1OC)[C@H]1CC(=O)[C@H](CC(C)C)CN1CC2` (racemic) [Tetrabenazine (Xenazine)], 97.03%; with `Cc1ccc(S(=O)(=O)NC(=O)NN2CC3CCC[C@@H]3C2)cc1` (stereo in doubt) [Gliclazide], 70.87%. As for `C=CC(=O)Nc1cc(Nc2nccc(-c3cn(C)c4ccccc34)n2)c(OC)cc1N(C)CCN(C)C` [AZD9291], the “Relative cell viability (%)” value was found to be 0.8547%. Regarding `NC(=O)c1ncn([C@@H]2O[C@H](CO)[C@@H](O)[C@H]2O)c1N` [Acadesine], the “Relative cell viability (%)” value came out at 105.9%. For the compound `C[C@H]1O[C@H](O[C@H]2[C@H](O)[C@@H](O)[C@@H](O[C@H]3[C@H](O)[C@@H](O)C(O)O[C@@H]3CO)O[C@@H]2CO)[C@H](O)[C@@H](O)[C@@H]1N[C@H]1C=C(CO)[C@@H](O)[C@H](O)[C@H]1O` (some centres unmarked) [Acarbose], the “Relative cell viability (%)” value is 103.9%.

For the compound `COc1ccc2c(c1)c(CC(=O)OCC(=O)O)c(C)n2C(=O)c1ccc(Cl)cc1` [Acemetacin], the “Relative cell viability (%)” value came to 81.07%.

As for `CC(=O)OCC[N+](C)(C)C` [Acetylcholine Chloride], the “Relative cell viability (%)” value is listed as 93.22%. Same read-out and setting: with `Nc1nc2c(ncn2COCCO)c(=O)[nH]1` [Aciclovir] the figure was 89.41%; with `Cc1cnc(C(=O)O)c[n+]1[O-]` [Acipimox], 94.49%. Still for that read-out and setting: with `COc1cc(C)c(/C=C/C(C)=C/C=C/C(C)=C/C(=O)O)c(C)c1C` [Acitretin] the figure was 60.28%; with `COc1ccc(-c2ccc3cc(C(=O)O)ccc3c2)cc1[C@]12C[C@H]3C[C@H](C[C@H](C3)C1)C2` [Adapalene], 16.67%; with `CCN(CC)CCOC(=O)C(c1ccccc1)c1ccccc1` [Adiphenine HCl], 119.6%.

With `CN(C)C/C=C/C(=O)Nc1cc2c(Nc3ccc(F)c(Cl)c3)ncnc2cc1O[C@H]1CCOC1` [Afatinib (BIBW2992) Dimaleate], the “Relative cell viability (%)” value is recorded as 20.09%.

With `Cn1ncc(Cl)c1-c1cc(C(=O)N[C@H](CN)Cc2cccc(F)c2)sc1Cl` [Afuresertib (GSK2110183)], the “Relative cell viability (%)” value worked out at 13.68%.

Regarding `COc1ccc2cccc(CCNC(C)=O)c2c1` [Agomelatine], the “Relative cell viability (%)” value came out at 61.84%. On the same count and under the same terms, under `CCC[S+]([O-])c1ccc2[nH]c(NC(=O)OC)nc2c1` (centres unmarked) [Albendazole Oxide] stands 65.25%; under `C=CCc1cc(OC)c(O)c(C(=O)NCCO)c1` [Alibendol], 149.2%. With `COCCCOc1cc(C[C@@H](C[C@H](N)[C@@H](O)C[C@H](C(=O)NCC(C)(C)C(N)=O)C(C)C)C(C)C)ccc1OC` [Aliskiren Hemifumarate], the “Relative cell viability (%)” value came out at 106.1%. As to `CN(C)CCc1c[nH]c2ccc(CS(=O)(=O)N3CCCC3)cc12` [Almotriptan Malate], the “Relative cell viability (%)” value was 113.8%.

Turning to `Cn1c(=O)cc(N2CCC[C@@H](N)C2)n(Cc2ccccc2C#N)c1=O` [Alogliptin], the “Relative cell viability (%)” value is reported as 101.5%. As to `CCOC(=O)[C@H]1O[C@@H]1C(=O)N[C@@H](CC(C)C)C(=O)NCCC(C)C` [Aloxistatin], the “Relative cell viability (%)” value worked out at 100.9%. With `CN(C)c1nc(N(C)C)nc(N(C)C)n1` [Altretamine], the “Relative cell viability (%)” value is recorded as 57.17%.

For the compound `Cc1c(-c2ccnn2C)cc(C(=O)NCc2ccc(S(C)(=O)=O)cn2)c(=O)n1-c1cccc(C(F)(F)F)c1` [Alvelestat (AZD9668)], the “Relative cell viability (%)” value is recorded as 116.2%. Take `CCN(CCCc1ccccc1)CCCc1ccccc1` [Alverine Citrate]: the “Relative cell viability (%)” value was 78.16%.

On to `NC12CC3CC(CC(C3)C1)C2` [Amantadine HCl], for which the “Relative cell viability (%)” value turned out to be 105.5%.

With `COC(c1ccccc1)(c1ccccc1)[C@H](Oc1nc(C)cc(C)n1)C(=O)O` [Ambrisentan], the “Relative cell viability (%)” value came to 132.6%. As to `Nc1c(Br)cc(Br)cc1CN[C@H]1CC[C@H](O)CC1` [Ambroxol HCl], the “Relative cell viability (%)” value is 67.96%. The same measure, in the same setting: with `CC(NC(C)(C)C)C(=O)c1cccc(Cl)c1` (centres unmarked) [Amfebutamone HCl] the figure was 104.9%; with `N=C(N)NC(=O)c1nc(Cl)c(N)nc1N` [Amiloride HCl], 66.53%. Same read-out and setting: with `Nc1nccs1` [Aminothiazole] the figure was 93.03%. Turning to `CCN1CCCC1CNC(=O)c1cc(S(=O)(=O)CC)c(N)cc1OC` (centres unmarked) [Amisulpride], the “Relative cell viability (%)” value was 77.41%. With `CCOC(=O)C1=C(COCCN)NC(C)=C(C(=O)OC)C1c1ccccc1Cl` (centres unmarked) [Amlodipine besylate (Norvasc)], the “Relative cell viability (%)” value (Relative cell viability (%)) is 75.42%. Turning to `CCOC(=O)C1=C(COCCN)NC(C)=C(C(=O)OC)C1c1ccccc1Cl` (centres unmarked) [Amlodipine], the “Relative cell viability (%)” value (Relative cell viability (%)) is given as 88.54%.

For `CN(C)CCN1C(=O)c2cccc3cc(N)cc(c23)C1=O` [Amonafide], the “Relative cell viability (%)” value is 8.879%. For `Clc1ccc2c(c1)C(N1CCNCC1)=Nc1ccccc1O2` [Amoxapine], the “Relative cell viability (%)” value is 73.94%. Still for that read-out and setting: with `CC1(C)S[C@@H]2[C@H](NC(=O)[C@H](N)c3ccc(O)cc3)C(=O)N2[C@H]1C(=O)O` [Amoxicillin] the figure was 67.96%.

In the case of `S=C(NCc1ccc2c(c1)OCO2)N1CCN(c2ncnc3c2oc2ccccc23)CC1` [Amuvatinib (MP-470)], the “Relative cell viability (%)” value is reported as 66.51%. Still for that read-out and setting: with `CCCCCOc1ccc(-c2ccc(-c3ccc(C(=O)N[C@H]4C[C@@H](O)[C@@H](O)NC(=O)[C@@H]5[C@@H](O)[C@@H](C)CN5C(=O)[C@H]([C@@H](C)O)NC(=O)[C@H]([C@H](O)[C@@H](O)c5ccc(O)cc5)NC(=O)[C@@H]5C[C@@H](O)CN5C(=O)[C@H]([C@@H](C)O)NC4=O)cc3)cc2)cc1` [Anidulafungin (LY303366)] ({pTerphenylCO(4''-OnC5H11)}-[Orn(4R-OH,5R-OH)]T[Hyp][hTyr(3S-OH,4S-OH)]T[Pro(3S-OH,4S-Me)]; lactam 1-C) the figure was 71.21%; with `COc1ccc(C(=O)N2CCCC2=O)cc1` [Aniracetam], 91.43%; with `CCCC(CCC)C(=O)O[C@H]1C[C@H]2CC[C@@H](C1)[N+]2(C)C` [Anisotropine Methylbromide], 55.76%. With `c1ccc(CN(CC2=NCCN2)c2ccccc2)cc1` [Antazoline HCl], the “Relative cell viability (%)” value came to 63.94%. `N#CC1(c2ccc(NC(=O)c3cccnc3NCc3ccncc3)cc2)CCCC1` [Apatinib]: the “Relative cell viability (%)” value is reported as 110.8%. With `COC(=O)C1=CCCN(C)C1` [Arecoline], the “Relative cell viability (%)” value came out at 59.22%. In the case of `CC1CNc2c(cccc2S(=O)(=O)N[C@@H](CCCNC(=N)N)C(=O)N2CC[C@@H](C)C[C@@H]2C(=O)O)C1` (some centres unmarked) [Argatroban], the “Relative cell viability (%)” value is recorded as 123.2%. As for `CO[C@H]1O[C@@H]2O[C@@]3(C)CC[C@H]4[C@H](C)CC[C@@H]([C@H]1C)[C@@]24OO3` [Artemether], the “Relative cell viability (%)” value is reported as 126.1%. Take `C[C@@H]1CC[C@H]2[C@@H](C)C(=O)O[C@@H]3O[C@@]4(C)CC[C@@H]1[C@]32OO4` [Artemisinin]: the “Relative cell viability (%)” value is 110.1%. For the compound `COC(=O)[C@H](Cc1ccccc1)NC(=O)[C@@H](N)CC(=O)O` [Aspartame] (H-Asp-Phe-OMe), the “Relative cell viability (%)” value came to 199.9%. As to `CC(=O)Oc1ccccc1C(=O)O` [Aspirin], the “Relative cell viability (%)” value came to 63.59%. `COc1ccc(C[C@@H]2c3cc(OC)c(OC)cc3CC[N@+]2(C)CCC(=O)OCCCCCOC(=O)CC[N@@+]2(C)CCc3cc(OC)c(OC)cc3[C@H]2Cc2ccc(OC)c(OC)c2)cc1OC` [Atracurium Besylate]: under “Relative cell viability (%)”, the “Relative cell viability (%)” value came out at 91.95%. Regarding `NC(=O)[C@@H](CCC(F)(F)F)N(Cc1ccc(-c2ncon2)cc1F)S(=O)(=O)c1ccc(Cl)cc1` [Avagacestat (BMS-708163)], the “Relative cell viability (%)” value turned out to be 74.3%.
